In US6300331A, “Naphthalimidobenzamide derivatives” (Taiho Pharmaceutical Co., Ltd., priority 1998, dated 2001):
Counter-ions that a name gives are not always drawn.

Test system: KB cells
Assay: Cytotoxicity against KB cells (crystal violet dying method)
Assay type: cell-based
Details: Homo sapiens; KB cells, 72 hours, 50% proliferation inhibition; read-out: Cytotoxicity [IC50 (μM)]
Experimental: Test 1 Cytotoxicity against KB cells
The residue was re-suspended in an MEM medium containing 10% fetal bovine serum. Then, an equivalent amount of a 0.2% trypan blue solution was added to a portion of the cell suspension, followed by mixing. The number of living cells which had not been dyed with the trypan blue was counted by a hemocytometer and the suspension was diluted and adjusted with the above-described culture medium to give a cell concentration of 1×10^4 cells/ml. Each well of a 96-well plate was inoculated with a 100-μl portion of the resulting suspension, in other words, was inoculated to give a concentration of 1×10^3 cells/well.
To the cells cultured in a CO2 incubator for 24 hours after the inoculation was added 100 μl/well of a medicament solution, followed by culturing for 72 hours. To a control was added 100 μl of an MEM medium.
The cytotoxicity of the medicament was determined from a change in the number of the cells by using the crystal violet dying method.
After washing the plate with water, 100 μl/well of a 0.05% crystal violet solution dissolved in 20% methanol was added to dye the cells therewith for about 15 minutes. The plate was washed to remove the unbound crystal violet, followed by the addition of 100 μl/well of 0.05M NaH2 PO4 /ethanol (1:1 v/v), whereby the crystal violet bound to the cellular protein was extracted.

Compound | IC50
O=C(NCCNCCN1C(=O)c2cccc3cc([N+](=O)[O-])cc(c23)C1=O)c1cc(C(=O)N2CCC(N3CCCCC3)CC2)cc(N2C(=O)c3cccc4cc([N+](=O)[O-])cc(c34)C2=O)c1 [Example 55, 1-(3-nitro-1,8-naphthalimido)-3-[N-[2-[[2-(3-nitro-1,8-naphthalimido)ethyl]amino]ethyl]carbamoyl]-5-(4-piperidinopiperidino)carbonylbenzene hydrochloride] | 0.11 µM
CNC(=O)c1cc(C(=O)NCCNCCN2C(=O)c3cccc4cc([N+](=O)[O-])cc(c34)C2=O)cc(N2C(=O)c3cccc4cc([N+](=O)[O-])cc(c34)C2=O)c1 [Example 43, 1-methylcarbamoyl-3-(3-nitro-1,8-naphthalimido)-5-[N-[2-[[2-(3-nitro-1,8-naphthalimido)ethyl]amino]ethyl]carbamoyl]benzene hydrochloride] | 0.025 µM
CN1CCN(C(=O)c2cc(C(=O)NCCCNCCN3C(=O)c4cccc5cc([N+](=O)[O-])cc(c45)C3=O)cc(N3C(=O)c4cccc5cc([N+](=O)[O-])cc(c45)C3=O)c2)CC1 [Example 56 (A), 1-(4-methylpiperazino)carbonyl-3-(3-nitro-1,8-naphthalimido)-5-[N-[3-[[2-(3-nitro-1,8-naphthalimido)ethyl]amino]propyl]carbamoyl]benzene hydrochloride] | 0.039 µM
CN(C)CCNC(=O)c1cc(C(=O)NCCNCCN2C(=O)c3cccc4cc([N+](=O)[O-])cc(c34)C2=O)cc(N2C(=O)c3cccc4cc([N+](=O)[O-])cc(c34)C2=O)c1 [Example 42, 1-[N-(2-dimethylaminoethyl)carbamoyl]-3-(3-nitro-1,8-naphthalimido)-5-[N-[2-[[2-(3-nitro-1,8-naphthalimido)ethyl]amino]ethyl]carbamoyl]benzene hydrochloride] | 0.15 µM
O=C(NCCNCCN1C(=O)c2cccc3c(Cl)ccc(c23)C1=O)c1cc(C(=O)NCCNCCN2C(=O)c3cccc4c(Cl)ccc(c34)C2=O)cc(N2C(=O)c3cccc4cc([N+](=O)[O-])cc(c34)C2=O)c1 [Example 8, 1,3-bis[N-[2-[[2-(4-chloro-1,8-naphthalimido)ethyl]amino]ethyl]carbamoyl]-5-(3-nitro-1,8-naphthalimido)benzene dihydrochloride] | 0.05 µM
O=C(NCCNCCN1C(=O)c2cc3ccccc3cc2C1=O)c1cc(C(=O)NCCNCCN2C(=O)c3cccc4cc([N+](=O)[O-])cc(c34)C2=O)cc(N2C(=O)c3cccc4cc([N+](=O)[O-])cc(c34)C2=O)c1 [Example 17, 1-[N-[2-[[2-(2,3-naphthalimido)ethyl]amino]ethyl]carbamoyl]-3-(3-nitro-1,8-naphthalimido)-5-[N-[2-[[2-(3-nitro-1,8-naphthalimido)ethyl]amino]ethyl]carbamoyl]benzene dihydrochloride] | 0.28 µM
O=C(NCCNCCNC(=O)c1cnc2ccccc2c1)c1cc(C(=O)NCCNCCN2C(=O)c3cccc4cc([N+](=O)[O-])cc(c34)C2=O)cc(N2C(=O)c3cccc4cc([N+](=O)[O-])cc(c34)C2=O)c1 [Example 13, 1-(3-nitro-1,8-naphthalimido)-3-[N-[2-[[2-(3-nitro-1,8-naphthalimido)ethyl]amino]ethyl]carbamoyl]-5-[N-[2-[[2-(quinoline-3-carbonylamino)ethyl]amino]ethyl]carbamoyl]benzene trihydrochloride] | 1.6 µM
O=C(NCCNCCN1C(=O)c2cccc3cc([N+](=O)[O-])cc(c23)C1=O)c1cc(C(=O)NCCNCCN2C(=O)c3cccc4cc([N+](=O)[O-])cc(c34)C2=O)cc(N2C(=O)c3cccc4cccc(c34)C2=O)c1 [Example 2, 1,3-bis[N-[2-[[2-(3-nitro-1,8-naphthalimido)ethyl]amino]ethyl]carbamoyl]-5(1,8-naphthalimido)benzene dimethanesulfonate] | 0.0061 µM
Cn1c(C(=O)NCCNCCNC(=O)c2cc(C(=O)NCCNCCN3C(=O)c4cccc5cc([N+](=O)[O-])cc(c45)C3=O)cc(N3C(=O)c4cccc5cc([N+](=O)[O-])cc(c45)C3=O)c2)cc2ccccc21 [Example 16, 1-(3-nitro-1,8-naphthalimido)-3-[N-[2-[[2-(3-nitro-1,8-naphthalimido)ethyl]amino]ethyl]carbamoyl]-5-[N-[2-[[2-(1-methylindole-2-carbonylamino)ethyl]amino]ethyl]carbamoyl]benzene dihydrochloride] | 6.6 µM
CN(C)CCCNC(=O)c1cc(NC(=O)CCCNC(=O)c2cc(C(=O)NCCNCCN3C(=O)c4cccc5cc([N+](=O)[O-])cc(c45)C3=O)cc(N3C(=O)c4cccc5cc([N+](=O)[O-])cc(c45)C3=O)c2)cn1C [Example 34, 1-[N-[3-[N-[2-[N-(3-dimethylaminopropyl)carbamoyl]-1-methylpyrrol-4-yl]carbamoyl]propyl]carbamoyl]-3-(3-nitro-1,8-naphthalimido)-5-[N-[2-[[2-(3-nitro-1,8-naphthalimido)ethyl]amino]ethyl]carbamoyl]benzene dihydrochloride] | 4.7 µM
O=C(NCCNCCN1C(=O)c2cccc3cc([N+](=O)[O-])cc(c23)C1=O)c1cc(C(=O)N2CCOCC2)cc(N2C(=O)c3cccc4cc([N+](=O)[O-])cc(c34)C2=O)c1 [Example 48, 1-morpholinocarbonyl-3-(3-nitro-1,8-naphthalimido)-5-[N-[2-[[2-(3-nitro-1,8-naphthalimido)ethyl]amino]ethyl]carbamoyl]benzene hydrochloride] | 0.052 µM
O=C(NCCNCCN1C(=O)c2cccc3cccc(c23)C1=O)c1cc(C(=O)NCCNCCN2C(=O)c3cccc4cccc(c34)C2=O)cc(N2C(=O)c3cccc4cc([N+](=O)[O-])cc(c34)C2=O)c1 [Example 6, 1,3-bis[N-[2-[[2-(1,8-naphthalimido)ethyl]amino]ethyl]carbamoyl]-5-(3-nitro-1,8-naphthalimido)benzene and dihydrochloride thereof] | 0.064 µM
CN1CCN(C(=O)c2cc(C(=O)NCCNCCN3C(=O)c4cccc5cc([N+](=O)[O-])cc(c45)C3=O)cc(N3C(=O)c4cccc5cccc(c45)C3=O)c2)CC1 [Example 50, 1-(4-methylpiperazino)carbonyl-3-(1,8-naphthalimido)-5-[N-[2-[[2-(3-nitro-1,8-naphthalimido)ethyl]amino]ethyl]carbamoyl]benzene hydrochloride] | 0.022 µM
CN(C)CCCNC(=O)c1cc(NC(=O)CCNC(=O)c2cc(C(=O)NCCNCCN3C(=O)c4cccc5cc([N+](=O)[O-])cc(c45)C3=O)cc(N3C(=O)c4cccc5cc([N+](=O)[O-])cc(c45)C3=O)c2)cn1C [Example 33, 1-[N-[2-[N-[2-[N-(3-dimethylaminopropyl)carbamoyl]-1-methylpyrrol-4-yl]carbamoyl]ethyl]carbamoyl]-3-(3-nitro-1,8-naphthalimido)-5-[N-[2-[[2-(3-nitro-1,8-naphthalimido)ethyl]amino]ethyl]carbamoyl]benzene dihydrochloride] | 7.1 µM
O=C(NCCNCCN1C(=O)c2cc3ccccc3cc2C1=O)c1cc(C(=O)NCCNCCN2C(=O)c3cc4ccccc4cc3C2=O)cc(N2C(=O)c3cccc4cc([N+](=O)[O-])cc(c34)C2=O)c1 [Example 7, 1,3-bis[N-[2-[[2-(2,3-naphthalimido)ethyl]amino]ethyl]carbamoyl]-5-(3-nitro-1,8-naphthalimido)benzene dihydrochloride] | 4.1 µM
